In article PMC3871618 (PLoS ONE, 2013):

Tests used:
[1] = tested on: MDCKII parent cells; assay: XTT cytotoxicity, CDKi + DNR combination (Chou-Talalay); assay type: cell-based; conditions: 72 h
Experimental: (§1) 1×10^4 MDCKII-ABCB1, 1×10^4 MDCKII parent, 2×10^4 HCT-8, or 2×10^4 HepG2 cells were grown in 96-well culture plates and incubated for 24 h. Individual CDKi diluted with growth medium were added to the exponentially growing cells and the resulting mixtures were incubated for 72 h at 37°C, 5% CO2. Cytotoxicity was then assessed using the XTT assay as follows: cells were incubated with 0.167 mg/mL XTT and 4 µM PMS in Opti-MEM for 2 h. The absorbance of the soluble formazan released was measured at 470 nm on a microplate reader (Tecan, Männedorf, Switzerland).
(§2) The combination index (CI) method of Chou-Talalay, based on the median-effect equation, was used to calculate combined drug effects. This approach offers quantitative definitions for additive, synergistic and antagonistic effects (CI values of 0.9–1.1, <0.9, and >1.1, respectively). Combination experiments were performed in a constant-ratio experimental design as recommended for the most efficient data analysis, and the generated data were used to quantify dose-reduction indices (DRI) for pairs of the tested drugs. DRI represents the fold-change of a focal effect when individual agents are used simultaneously relative to their separate effects, and their activity is synergistic if DRI > 1. […] The data acquired from these drug combination experiments were analyzed using CompuSyn ver. 3.0.1 software (ComboSyn Inc., Paramus, NJ, USA).

[2] = tested on: HepG2 cells; assay: as above; assay type: cell-based, human; conditions: HepG2, 72 h
Experimental: as §1, §2

[3] = tested on: HCT-8 cells; assay: as above; conditions: HCT-8, 72 h
Experimental: as §1, §2

[4] = target: T1, ABCB1 (Homo sapiens, UniProt P08183); assay: ABCB1-ATPase inhibition assay (verapamil-stimulated), Sf9 membranes; assay type: biochemical; set-up: purchased Solvo Biotechnology (Szeged, Hungary); host or cells: Sf9 insect cell membranes; conditions: 140 nM to 300 µM
T1 sequence (P08183 whole entry): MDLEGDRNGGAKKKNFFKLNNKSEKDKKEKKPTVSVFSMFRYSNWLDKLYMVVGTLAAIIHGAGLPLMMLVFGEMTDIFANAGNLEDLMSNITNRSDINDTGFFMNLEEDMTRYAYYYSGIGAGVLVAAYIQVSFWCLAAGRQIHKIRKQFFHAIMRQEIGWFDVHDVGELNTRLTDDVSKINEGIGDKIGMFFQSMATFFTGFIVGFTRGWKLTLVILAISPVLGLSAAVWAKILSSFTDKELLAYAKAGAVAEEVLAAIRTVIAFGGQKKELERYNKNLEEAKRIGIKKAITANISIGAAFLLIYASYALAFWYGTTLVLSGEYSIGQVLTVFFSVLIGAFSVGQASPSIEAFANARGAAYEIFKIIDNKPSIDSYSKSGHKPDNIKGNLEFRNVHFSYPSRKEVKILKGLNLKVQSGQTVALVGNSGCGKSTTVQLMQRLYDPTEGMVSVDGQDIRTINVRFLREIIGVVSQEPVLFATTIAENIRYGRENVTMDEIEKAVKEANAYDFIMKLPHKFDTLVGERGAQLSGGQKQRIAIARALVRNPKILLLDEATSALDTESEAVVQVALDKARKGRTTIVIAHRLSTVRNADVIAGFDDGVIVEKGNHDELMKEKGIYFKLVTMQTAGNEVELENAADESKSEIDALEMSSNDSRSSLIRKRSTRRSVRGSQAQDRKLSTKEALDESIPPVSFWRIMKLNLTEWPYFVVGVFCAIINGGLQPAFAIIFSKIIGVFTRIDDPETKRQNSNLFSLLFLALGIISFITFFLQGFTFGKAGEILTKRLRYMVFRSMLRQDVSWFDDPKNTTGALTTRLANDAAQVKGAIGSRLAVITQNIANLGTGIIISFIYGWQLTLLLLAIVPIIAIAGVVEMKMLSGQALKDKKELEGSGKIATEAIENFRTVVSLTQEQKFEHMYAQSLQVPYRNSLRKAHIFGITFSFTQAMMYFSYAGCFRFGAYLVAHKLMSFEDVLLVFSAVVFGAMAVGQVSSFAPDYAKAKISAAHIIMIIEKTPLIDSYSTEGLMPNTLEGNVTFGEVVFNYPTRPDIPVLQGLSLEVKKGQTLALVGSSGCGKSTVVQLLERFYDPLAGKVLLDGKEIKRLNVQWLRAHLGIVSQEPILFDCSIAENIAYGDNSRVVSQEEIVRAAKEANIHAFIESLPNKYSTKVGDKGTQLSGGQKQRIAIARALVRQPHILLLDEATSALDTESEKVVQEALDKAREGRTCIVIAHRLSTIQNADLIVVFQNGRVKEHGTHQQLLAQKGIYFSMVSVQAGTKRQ
Experimental: (§3) The drug efflux function of ABCB1 is linked to hydrolysis of ATP by ATPase, which is stimulated in the presence of ABCB1 substrates. In the activation assay, transported substrates can stimulate baseline vanadate-sensitive ATPase activity, whereas in the inhibition assay, which is carried out in the presence of a known activator of the transporter, inhibitors may reduce the maximal vanadate-sensitive ATPase activity. ATPase activity was measured by assessing the amount of phosphate liberated from ATP by the ABCB1 transporter using the […] ATPase kit for ABCB1 according to the manufacturer’s instructions. For this purpose, Sf9 cell membranes (4 µg protein per well) were mixed with each of the test compounds (singly) in solutions with concentrations ranging from 140 nM to 300 µM, then incubated at 37°C for 10 min in the presence or absence of 1.2 mM sodium orthovanadate. The reaction was started by adding 10 mM ATP solution (magnesium salt) to the reaction mixture, stopped 10 min later, and the absorbance at 590 nm was measured after a further 30 min incubation (GeniosPlus apparatus; Tecan, Männedorf, Switzerland). The ATPase activity in each sample was determined as the difference in liberated amounts of phosphate measured in the presence and absence of 1.2 mM sodium orthovanadate. Phosphate standards were prepared in each plate and verapamil served as a positive control for ABCB1 stimulation. The results are expressed as vanadate-sensitive ATPase activities.

[5] = target: T1, ABCB1; assay: HOE (Hoechst 33342) accumulation in MDCKII-ABCB1 cells; assay type: cell-based; set-up: expressed in transfected cells; host or cells: MDCKII (canine kidney) cells transduced with human ABCB1, from Prof; Piet Borst and Dr. Alfred Schinkel (The Netherlands Cancer Institute); conditions: human, probe Hoechst 33342 (HOE), 8 µM, CDKi applied at their respective IC50 concentrations, % as strongly as LY, read-out: Inhibition of HOE efflux relative to LY
Experimental: (§4) To investigate the inhibitory activity of CDKi on ABCB1, the intracellular accumulation of HOE, a fluorescent ABCB1 substrate, was examined in both MDCKII-ABCB1 and MDCKII parent cell lines in the presence and absence of the tested compounds. The reduction in fluorescence intensity in ABCB1-transduced cells indicates the efflux activity of the ABCB1 transporter, its inhibition increases HOE accumulation and thus the intracellular fluorescence.
(§5) The assay was conducted as previously described and optimized for application in ABCB1-expressing cells. Briefly, MDCKII-ABCB1 and MDCKII parent cells were seeded at 5×10^4 cells per well on a 96-well culture plate and used for accumulation experiments after 24 h cultivation. The medium was removed and cells were washed twice with prewarmed phosphate buffered saline (PBS) at pH 7.4.

[6] = target: T1, ABCB1; assay: ABCB1-ATPase activation assay (baseline), Sf9 membranes; assay type: biochemical; set-up: purchased Solvo Biotechnology (Szeged, Hungary); host or cells: Sf9 insect cell membranes; conditions: from ATPase activity in Sf9 membranes overexpressing human ABCB1
Experimental: as §3

[7] = target: T2, ABCB1 transporter (Homo sapiens, UniProt P08183); assay: HOE (Hoechst 33342) accumulation in MDCKII-ABCB1 cells; assay type: cell-based; conditions: 8 µM HOE, end-point fluorescence at 30 min, 50% of each compound's own maximum inhibitory activity, read-out: IC50, inhibition of ABCB1-mediated efflux of HOE
T2 construct: expressed in transfected cells; host or cells: MDCKII (canine kidney) cells transduced with human ABCB1, from Prof; Piet Borst and Dr. Alfred Schinkel (The Netherlands Cancer Institute)
T2 sequence (P08183 whole entry): as above
Experimental: as §4, §5

[8] = DNR combined with Olomoucine II, ratio 1∶9.2
[9] = DNR combined with Purvalanol A, ratio 1∶11.7
[10] = DNR combined with Roscovitine, ratio 1∶12.3
[11] = DNR combined with Olomoucine II, ratio 1∶20.5
[12] = DNR combined with Roscovitine, ratio 1∶47.0
[13] = DNR combined with Olomoucine II, ratio 1∶6.3
[14] = DNR combined with Purvalanol A, ratio 1∶17.7
[15] = DNR combined with Roscovitine, ratio 1∶17.0

With COc1cccc2c1C(=O)c1c(O)c3c(c(O)c1C2=O)C[C@@](O)(C(C)=O)C[C@@H]3O[C@H]1C[C@H](N)[C@H](O)[C@H](C)O1 [DNR, daunorubicin] the “DRI at Fa 0.5, drug I (DNR)” value [1, 8] was 2.38±0.08, the “DRI at Fa 0.75, drug I (DNR)” value [1, 8] was 3.07±0.06 and the “DRI at Fa 0.9, drug I (DNR)” value [1, 8] was 3.96±0.03. For the same compound, the “DRI at Fa 0.5, drug I (DNR)” value [1, 9] was 2.25±0.03, the “DRI at Fa 0.75, drug I (DNR)” value [1, 9] was 2.84±0.05 and the “DRI at Fa 0.9, drug I (DNR)” value [1, 9] was 3.60±0.09. For the same compound, the “DRI at Fa 0.75, drug I (DNR)” value [1, 10] was 2.74±0.06, the “DRI at Fa 0.9, drug I (DNR)” value [1, 10] was 3.57±0.09 and the “DRI at Fa 0.75, drug I (DNR)” value [2, 11] was 2.55±0.03. For the same compound, the “DRI at Fa 0.9, drug I (DNR)” value [2, 11] was 4.68±0.09, the “DRI at Fa 0.9, drug I (DNR)” value ([2]; DNR combined with Purvalanol A, ratio 1∶43.0) was 4.05±0.08 and the “DRI at Fa 0.75, drug I (DNR)” value [2, 12] was 2.72±0.02. For the same compound, the “DRI at Fa 0.9, drug I (DNR)” value [2, 12] was 5.02±0.03, the “DRI at Fa 0.5, drug I (DNR)” value [3, 13] was 3.11±0.13 and the “DRI at Fa 0.75, drug I (DNR)” value [3, 13] was 4.14 ±0.08. For the same compound, the “DRI at Fa 0.9, drug I (DNR)” value [3, 13] was 5.45±0.02, the “DRI at Fa 0.75, drug I (DNR)” value [3, 14] was 3.12±0.03 and the “DRI at Fa 0.9, drug I (DNR)” value [3, 14] was 4.36±0.13. For the same compound, the “DRI at Fa 0.5, drug I (DNR)” value [3, 15] was 2.63±0.02, the “DRI at Fa 0.75, drug I (DNR)” value [3, 15] was 3.96±0.05 and the “DRI at Fa 0.9, drug I (DNR)” value [3, 15] was 5.96±0.17.

For CN1CC[C@H](c2c(O)cc(O)c3c(=O)cc(-c4ccccc4Cl)oc23)[C@H](O)C1 [flavopiridol], the “Effect on verapamil-stimulated vanadate-sensitive ATPase activity of ABCB1” value [4] was “only slightly reduced it at the highest tested concentration”, the inhibition at 30 min [5] was 31% and the ABCB1 substrate classification [6] was “non-substrates of ABCB1”. The IC50 [7] was 16.9 µM.
